Measurements: patent US20060127505A1, “Anti-inflammatory formulations” (priority 2002, published 2006)
Entries after “also recorded” stand apart in the source; their conditions may differ. Marks after values point to notes of the source that are not given here.

How the values were obtained:
[1] = system: ovalbumin(OA)-induced asthma in guinea pigs; test: Ovalbumin-induced asthma in guinea pigs: inflammatory cells in BAL fluid; format: in vivo, guinea pig; conditions: for Eosinophils / Macrophages / Neutrophils: BAL fluid 24 hours after OV challenge
Protocol: The effect combinations of vitamin C, astaxanthin, and ginkolide on asthma-associated disease parameters ovalbumin(OA)-induced asthma in guinea pigs was evaluated. Twenty-four hours following OA challenge, animals are sacrificed and numbers of inflammatory cells (eosinophils, neutrophils, macrophages) are measured in bronchoalveolar lavage (BAL) fluid; and cAMP and cGMP concentrations in the lung tissue. The experiments were carried out as follows. Male Hartley guinea pigs (250-350 g) were sensitized by intramuscular injections of 0.35 ml of a 5% (W/V) ovalbumin (OA)/saline solution into each thigh on days 1 and 4. Guinea pigs were ready for asthmatic challenge after 25 days of ovalbumin injection. Asthmatic challenge was carried out with ovalbumin aerosol, and bronchoalveolar lavage (BAL) was done 24 hours later. The numbers of eosinophils, neutrophils, and macrophages in the BAL fluid were counted. Twenty-four hours after the aerosol OA challenge, guinea pigs were killed by cervical dislocation and exsanguinated by severing the axillary arteries. Lungs were lavaged with 50 ml of DulBecco's phosphate-buffered saline (aliquots of 10 ml), which were aspirated after gentle chest massage. BAL fluid was centrifuged at 2200 rpm (1100×g) for 10 min, supernatant was aspirated, and pellets were resuspended in 5 ml 0.25% NaCl to lyse residual erythrocytes. This dispersion was centrifuged at 2200 rpm (1100×g) for 10 min, supernatant was aspirated, and pellets were resuspended 5 ml 0.9% NaCl. Total cell counts were done by hemocytometry using trypan blue stain. Slides were prepared on a Shandon Cytospin 2 (Pittsburgh, Pa.) at 300 rpm for 5 min, fixed and stained. Differential cell counts were done using standard morphologic criteria to classify cells as eosinophils, neutrophils, or macrophages, and the results were expressed in cell numbers. The dose-responsive effect of AX, EGb761, and vitamin C administered independently for suppression of asthma-associated parameters in allergen-induced, asthmatic guinea pigs was determined. Ibuprophen (IB) was used as the positive control. Concentration of inflammatory cells in bronchoalveolar lavage (BAL) fluid and levels of cAMP and cGMP in lung tissue were measured in guinea pigs 24 hours following challenge with OV. Data is reported as mean±SD of measurements taken in 6 animals per dosage cohort. *p<0.05 compared to corresponding values of OV antigen-challenged, drug-free control group. The dose-responsive effect of AX, EGb761, and vitamin C administered in combination for suppression of asthma-associated parameters in allergen-induced, asthmatic guinea pigs was determined. The combination of these three components was given each day for each guinea pig as a “cocktail”. Concentration of inflammatory cells in bronchoalveolar lavage (BAL) fluid and levels of cAMP and cGMP in lung tissue were measured in guinea pigs 24 hours following challenge with OV. Data is reported as mean±SD of measurements taken in 6 animals per dosage cohort. *p<0.05 compared to corresponding values of OV antigen-challenged, drug-free control group.

[2] = system: cAMP and cGMP concentrations in the lung tissue; test: Ovalbumin-induced asthma in guinea pigs: cAMP and cGMP in lung tissue (radioimmunoassay); format: in vivo, guinea pig; conditions: lung tissue 24 hours after OV challenge
Protocol: The effect combinations of vitamin C, astaxanthin, and ginkolide on asthma-associated disease parameters ovalbumin(OA)-induced asthma in guinea pigs was evaluated. Twenty-four hours following OA challenge, animals are sacrificed and numbers of inflammatory cells (eosinophils, neutrophils, macrophages) are measured in bronchoalveolar lavage (BAL) fluid; and cAMP and cGMP concentrations in the lung tissue. The experiments were carried out as follows. Male Hartley guinea pigs (250-350 g) were sensitized by intramuscular injections of 0.35 ml of a 5% (W/V) ovalbumin (OA)/saline solution into each thigh on days 1 and 4. Guinea pigs were ready for asthmatic challenge after 25 days of ovalbumin injection. Asthmatic challenge was carried out with ovalbumin aerosol, and bronchoalveolar lavage (BAL) was done 24 hours later. The numbers of eosinophils, neutrophils, and macrophages in the BAL fluid were counted. Biopsies from lung tissues, cAMP and cGMP were measured using commercially available radioimmunoassay kits (Amersham). Immediately after sampling, lung biopsies were frozen by means of a Wollenberger clamp prechilled in liquid nitrogen. Samples were powdered with a pestle and mortar in liquid nitrogen and trichloro acetic acid (TCA) was added to the powdered frozen samples ([…] of tissue). Samples were further homogenized in the frozen TCA in the braying mortar and then centrifuged at 14,000×g for 10 min at 4° C. The supernatants were extracted 6 times in water-saturated diethylether, evaporated and assayed for cGMP by radioimmunoassay using liquid scintillation counter (Packard, Tri-Carb 2100TR). The dose-responsive effect of AX, EGb761, and vitamin C administered independently for suppression of asthma-associated parameters in allergen-induced, asthmatic guinea pigs was determined. Ibuprophen (IB) was used as the positive control. Concentration of inflammatory cells in bronchoalveolar lavage (BAL) fluid and levels of cAMP and cGMP in lung tissue were measured in guinea pigs 24 hours following challenge with OV. […] The dose-responsive effect of AX, EGb761, and vitamin C administered in combination for suppression of asthma-associated parameters in allergen-induced, asthmatic guinea pigs was determined. The combination of these three components was given each day for each guinea pig as a “cocktail”. Concentration of inflammatory cells in bronchoalveolar lavage (BAL) fluid and levels of cAMP and cGMP in lung tissue were measured in guinea pigs 24 hours following challenge with OV.

[3] = system: CD3+CD25+ lymphocytes in human PBMC; test: PHA-mediated induction of CD3+CD25+ lymphocytes in human PBMC (Example 8); format: cell-based; conditions: PHA 50 μg/ml, 24 hours
Protocol: Cells from 3-12 asthma patients were cultured 24 hours with 50 μg/ml PHA. PBMC evaluated by 2-color flow cytometry were gated for CD3+ and analyzed for CD3+CD25+ or CD3+HLA-DR+ as a percentage of the CD3+ population. Results are reported as stimulation indices (SI) calculated as the ratio of % CD3+CD25+ cells or % CD3+HLA-DR+ cells in fully-stimulated cultures to % CD3+CD25+ or % CD3+HLA-DR+ respectively in cells treated with PHA plus ASX, GB, or combinations thereof.

`CC1=C(/C=C/C(C)=C/C=C/C(C)=C/C=C/C=C(C)/C=C/C=C(C)/C=C/C2=C(C)C(=O)[C@@H](O)CC2(C)C)C(C)(C)C[C@H](O)C1=O` [astaxanthin, 3,3′-dihydroxy-4,4′-diketo-B-carotene] showed an Eosinophils ([1]; 5 mg/kg) of 5.0 ± 0.7 cell × 10^6/animal, a Macrophages ([1]; 5 mg/kg) of 9.6 ± 1.0 cell × 10^6/animal and a Neutrophils ([1]; 5 mg/kg) of 5.4 ± 0.8 cell × 10^5/animal. It also gave an Eosinophils ([1]; 10 mg/kg) of 4.6 ± 0.6 cell × 10^6/animal, a Macrophages ([1]; 10 mg/kg) of 8.0 ± 0.8 cell × 10^6/animal and a Neutrophils ([1]; 10 mg/kg) of 5.1 ± 0.6 cell × 10^5/animal. The Eosinophils ([1]; 30 mg/kg) was 3.1 ± 0.5* cell × 10^6/animal, the Macrophages ([1]; 30 mg/kg) was 3.7 ± 0.7* cell × 10^6/animal and the Neutrophils ([1]; 30 mg/kg) was 3.3 ± 0.8* cell × 10^5/animal. For the same compound, the Eosinophils ([1]; 100 mg/kg) was 2.4 ± 0.6* cell × 10^6/animal, the Macrophages ([1]; 100 mg/kg) was 2.70 ± 0.7* cell × 10^6/animal and the Neutrophils ([1]; 100 mg/kg) was 2.4 ± 0.5* cell × 10^5/animal. The Eosinophils ([1]; 200 mg/kg) was 2.3 ± 0.5* cell × 10^6/animal, the Macrophages ([1]; 200 mg/kg) was 2.6 ± 0.5* cell × 10^6/animal and the Neutrophils ([1]; 200 mg/kg) was 2.0 ± 0.4* cell × 10^5/animal. For the same compound, the “protection against OV-induced asthma” value ([1]; components used separately: 10 mg/kg AX, 200 mg/kg vit C, 10 mg/kg GB, listed as AX) was “failed to protect; also recorded: failed to reduce the severity of asthma”, the cAMP ([2]; 5 mg/kg) was 6.9 ± 0.5 pmol (mg protein)^−1 and the cGMP ([2]; 5 mg/kg) was 1.2 ± 0.1 pmol (mg protein)^−1. For the same compound, the cAMP ([2]; 10 mg/kg) was 8.1 ± 0.8 pmol (mg protein)^−1, the cGMP ([2]; 10 mg/kg) was 1.4 ± 0.1 pmol (mg protein)^−1 and the cAMP ([2]; 30 mg/kg) was 9.6 ± 0.8 pmol (mg protein)^−1. The cGMP ([2]; 30 mg/kg) was 1.8 ± 0.3 pmol (mg protein)^−1, the cAMP ([2]; 100 mg/kg) was 12.6 ± 0.8 pmol (mg protein)^−1 and the cGMP ([2]; 100 mg/kg) was 2.8 ± 0.3 pmol (mg protein)^−1. For the same compound, the cAMP ([2]; 200 mg/kg) was 12.1 ± 0.5 pmol (mg protein)^−1, the cGMP ([2]; 200 mg/kg) was 2.7 ± 0.2 pmol (mg protein)^−1 and the “CD3+CD25+ Stimulation Index” value ([3]; 10^−4 M) was 0.49 ± 0.09. The “CD3+CD25+ Stimulation Index” value ([3]; 10^−5 M) was 0.95 ± 0.06, the “CD3+CD25+ Stimulation Index” value ([3]; 10^−6 M) was 0.96 ± 0.10 and the “CD3+CD25+ Stimulation Index” value ([3]; 10^−7 M) was 0.90 ± 0.05. The “CD3+CD25+ Stimulation Index” value ([3]; 10^−8 M) was 0.95 ± 0.05.
